From US20240158446A1, “CYCLIC COMPOUND HAVING SELECTIVE INHIBITORY ACTION ON KRAS OVER HRAS AND NRAS” (CHUGAI SEIYAKU KABUSHIKI KAISHA, priority 2021, published 2024)
Where a SMILES comes first, the peptide text is derived from it. Bridges are numbered along the chain shown (N, C = ends). [ ]: non-standard residue; d: D form. The star is where a group is joined. hPhe(3-Cl-4-CF3) = N[C@@H](CCc1ccc(C(F)(F)F)c(Cl)c1)C(=O)O; NPrPhe(4-CF3) = CCCN[C@@H](Cc1ccc(C(F)(F)F)cc1)C(=O)O; NMeGly(cPent) = CN[C@H](C(=O)O)C1CCCC1; NMeD = CN[C@@H](CC(=O)O)C(=O)O; Ac4c(3-oxa) = NC1(C(=O)O)COC1; NMeL = CN[C@@H](CC(C)C)C(=O)O; NMeS = CN[C@@H](CO)C(=O)O; Morpholide = C1CN(*)CCO1; Ac5c = NC1(C(=O)O)CCCC1; Sar = CNCC(=O)O

Tests used:
[1] = target: GDP-bound HRAS wild-type protein (Homo sapiens, UniProt P01112); test: Binding to HRAS by surface plasmon resonance (SPR), Single Cycle Kinetics; settings: ratio of KD for GDP-bound HRAS wild-type protein to KD for KRAS, SPR
Chain of GDP-bound HRAS wild-type protein (P01112 whole entry): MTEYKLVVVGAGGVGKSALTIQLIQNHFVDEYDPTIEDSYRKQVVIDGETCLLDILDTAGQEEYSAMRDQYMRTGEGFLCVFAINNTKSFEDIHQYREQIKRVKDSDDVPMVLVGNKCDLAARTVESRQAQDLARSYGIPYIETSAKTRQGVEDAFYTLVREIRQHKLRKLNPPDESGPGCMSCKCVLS

[2] = target: GDP-bound NRAS wild-type protein (Homo sapiens, UniProt P01111); test: Binding to NRAS by surface plasmon resonance (SPR), Single Cycle Kinetics; settings: ratio of KD for GDP-bound NRAS wild-type protein to KD for KRAS, SPR
Chain of GDP-bound NRAS wild-type protein (P01111 whole entry): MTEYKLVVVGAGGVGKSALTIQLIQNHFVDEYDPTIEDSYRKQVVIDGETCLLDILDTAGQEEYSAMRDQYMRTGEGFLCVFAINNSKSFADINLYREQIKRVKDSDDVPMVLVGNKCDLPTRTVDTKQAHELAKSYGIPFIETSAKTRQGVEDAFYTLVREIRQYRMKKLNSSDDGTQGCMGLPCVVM

[3] = tested on: human lung cancer strain NCI-H441; test: cells; settings: NCI-H441, 96 h, read-out: NCI-H441 IC50 (nM), NCI-H441 cell proliferation, 4 days, CellTiter-Glo;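 also: cell proliferation inhibition after four days measured by CellTiter-Glo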
[4] = target: GDP-bound KRAS wild-type protein (Homo sapiens, UniProt P01116); test: Binding to KRAS by surface plasmon resonance (SPR), Single Cycle Kinetics; settings: SPR, Single Cycle Kinetics, GDP-bound KRAS wild-type protein; read-out: KRAS KD
Chain of GDP-bound KRAS wild-type protein (P01116 whole entry): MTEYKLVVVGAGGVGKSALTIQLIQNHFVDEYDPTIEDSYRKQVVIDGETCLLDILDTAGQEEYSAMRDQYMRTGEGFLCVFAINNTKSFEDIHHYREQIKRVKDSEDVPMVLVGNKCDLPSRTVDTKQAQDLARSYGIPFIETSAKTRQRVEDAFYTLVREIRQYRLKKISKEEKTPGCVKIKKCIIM

| Structure (SMILES) | HRAS/KRAS (KD ratio) [1] | NRAS/KRAS (KD ratio) [2] | IC50 [3] [nM] | Kd [4] [nM] |
| --- | --- | --- | --- | --- |
| CCCN1C(=O)CN(C)C(=O)CN(C)C(=O)[C@H]([C@@H](C)CC)NC(=O)[C@H](CC(C)C)N(C)C(=O)C[C@@H](C(=O)N2CCOCC2)N(C)C(=O)[C@H](C2CCCC2)N(C)C(=O)C2(COC2)NC(=O)[C@@H]2CCCN2C(=O)[C@H](CCc2ccc(C(F)(F)F)c(Cl)c2)NC(=O)CN(C)C(=O)[C@@H]1Cc1ccc(C(F)(F)F)cc1 [PP1922] ([NMeL]I[Sar][Sar][NPrPhe(4-CF3)][Sar][hPhe(3-Cl-4-CF3)]P[Ac4c(3-oxa)][NMeGly(cPent)][NMeD]-Morpholide; lactam N-11) | C (A compound having a KD ratio of 0.1 or more and less than 3 is denoted as C) | B (a compound having 3 or more and less than 10 is denoted as B) | 44.1 | 0.23 |
| CCC[C@H]1C(=O)N[C@@H]([C@@H](C)CC)C(=O)N(C)CC(=O)N(C)[C@H]2C/C=C\CCN(C2=O)[C@@H](Cc2ccc(C(F)(F)F)cc2)C(=O)N(C)CC(=O)N[C@@H](CCc2cc(F)c(C(F)(F)F)c(F)c2)C(=O)N(C)[C@@H](C)C(=O)NC2(CC(C)(C)C2)C(=O)N(C)[C@@H](C2CCCC2)C(=O)N(C)[C@H](C(=O)N(C)C)CC(=O)N1C [PP1934] | A (a compound having 10 or more and less than 20 is denoted as A) | A (a compound having 10 or more and less than 20 is denoted as A) | 68.5 | 0.72 |
| CCO[C@@H]1C[C@H]2C(=O)NC3(CC(C)(C)C3)C(=O)N(C)[C@@H](C3CCCC3)C(=O)N(C)[C@H](C(=O)N(C)CC)CC(=O)N(C)[C@@H](CC(C)C)C(=O)N[C@@H]([C@@H](C)OCC)C(=O)N(C)CC(=O)N(C)[C@H]3C/C=C\CCN(C3=O)[C@@H](Cc3ccc(C(F)(F)F)cc3)C(=O)N(C)CC(=O)N[C@@H](CCc3cc(F)c(C(F)(F)F)c(F)c3)C(=O)N2C1 [PP1919] | A (a compound having 10 or more and less than 20 is denoted as A) | A (a compound having 10 or more and less than 20 is denoted as A) | 6.3 | 0.23 |
| CC[C@H](C)[C@@H]1NC(=O)[C@H](CC(C)C)N(C)C(=O)C[C@@H](C(=O)N(C)C)N(C)C(=O)[C@H](C2CCCC2)N(C)C(=O)C2(CC(C)(C)C2)NC(=O)[C@@H]2C[C@H](C)CN2C(=O)[C@H](CCc2cc(F)c(C(F)(F)F)c(F)c2)NC(=O)CN(C)C(=O)[C@H](Cc2ccc(C(F)(F)F)cc2)N2CC/C=C\C[C@@H](C2=O)N(C)C(=O)CN(C)C1=O [PP1662] | B (a compound having 3 or more and less than 10 is denoted as B) | A (a compound having 10 or more and less than 20 is denoted as A) | 6.4 | 0.14 |
| CCCC[C@H]1C(=O)N[C@@H]([C@@H](C)CC)C(=O)N(C)CC(=O)N(C)[C@H]2C/C=C\CCN(C2=O)[C@@H](Cc2ccc(C(F)(F)F)cc2)C(=O)N(C)CC(=O)N[C@@H](CCc2cc(F)c(C(F)(F)F)c(F)c2)C(=O)N2C[C@H](OCC)C[C@H]2C(=O)NC2(CC(C)(C)C2)C(=O)N(C)[C@@H](C2CCCC2)C(=O)N(C)[C@H](C(=O)N(C)C)CC(=O)N1C [PP1649] | B (a compound having 3 or more and less than 10 is denoted as B) | A (a compound having 10 or more and less than 20 is denoted as A) | 2.2 | 0.064 |
| CCCN(C)C(=O)[C@@H]1CC(=O)N(C)[C@@H](CCOC)C(=O)N[C@@H]([C@@H](C)CC)C(=O)N(C)CC(=O)N(C)[C@H]2C/C=C\CCN(C2=O)[C@@H](Cc2ccc(C(F)(F)F)cc2)C(=O)N(C)CC(=O)N[C@@H](CCc2ccc(C(F)(F)F)c(OC)c2)C(=O)N2C[C@H](OCC)C[C@H]2C(=O)NC2(CCC2)C(=O)N(C)[C@@H](C2CCCC2)C(=O)N1C [PP2018] | B (a compound having 3 or more and less than 10 is denoted as B) | A (a compound having 10 or more and less than 20 is denoted as A) | 5.3 | 0.1 |
| CCCC[C@H]1C(=O)N[C@@H]([C@@H](C)CC)C(=O)N(C)CC(=O)N(C)[C@H]2C/C=C\CCN(C2=O)[C@@H](Cc2ccc(C(F)(F)F)cc2)C(=O)N(C)CC(=O)N[C@@H](CCc2cc(F)c(C(F)(F)F)c(F)c2)C(=O)N2C[C@H](OCC)C[C@H]2C(=O)NC2(CCC2)C(=O)N(C)[C@@H](C2CCCC2)C(=O)N(C)[C@H](C(=O)N(C)CCC)CC(=O)N1C [PP1704] | A (a compound having 10 or more and less than 20 is denoted as A) | A (a compound having 10 or more and less than 20 is denoted as A) | 10.3 | 0.14 |
| CCCN1C(=O)CN(C)C(=O)CN(C)C(=O)[C@H]([C@@H](C)CC)NC(=O)[C@H](CC(C)C)N(C)C(=O)C[C@@H](C(=O)N2CCOCC2)N(C)C(=O)[C@H](C2CCCC2)N(C)C(=O)C2(CCCC2)NC(=O)[C@H](COC)N(C)C(=O)[C@H](CCc2ccc(C(F)(F)F)c(Cl)c2)NC(=O)CN(C)C(=O)[C@@H]1Cc1ccc(C(F)(F)F)cc1 [PP1920] ([NMeL]I[Sar][Sar][NPrPhe(4-CF3)][Sar][hPhe(3-Cl-4-CF3)][NMeS](Me)[Ac5c][NMeGly(cPent)][NMeD]-Morpholide; lactam N-11) | C (A compound having a KD ratio of 0.1 or more and less than 3 is denoted as C) | B (a compound having 3 or more and less than 10 is denoted as B) | 32.4 | 0.31 |
| CC[C@H](C)[C@@H]1NC(=O)[C@H](CC2CC2)N(C)C(=O)C[C@@H](C(=O)N(C)C)N(C)C(=O)[C@H](C2CCCC2)N(C)C(=O)C2(CC(C)(C)C2)NC(=O)[C@@H]2C[C@H](C)CN2C(=O)[C@H](CCc2cc(F)c(C(F)(F)F)c(F)c2)NC(=O)CN(C)C(=O)[C@H](Cc2ccc(C(F)(F)F)cc2)N2CC/C=C\C[C@@H](C2=O)N(C)C(=O)CN(C)C1=O [PP1660] | A (a compound having 10 or more and less than 20 is denoted as A) | A (a compound having 10 or more and less than 20 is denoted as A) | 4.3 | 0.11 |
| CCO[C@@H]1C[C@H]2C(=O)NC3(CC(F)(F)C3)C(=O)N(C)[C@@H](C(CC)CC)C(=O)N3CCC[C@@H]3CC(=O)N(C)[C@@H](CC)C(=O)N[C@@H]([C@@H](C)CC)C(=O)N(C)CC(=O)N(C)[C@H]3C/C=C\CCN(C3=O)[C@@H](Cc3ccc(C(F)(F)F)cc3)C(=O)N(C)CC(=O)N[C@@H](CCc3cc(F)c(C(F)(F)F)c(F)c3)C(=O)N2C1 [PP1608] | A (a compound having 10 or more and less than 20 is denoted as A) | A (a compound having 10 or more and less than 20 is denoted as A) | 70.1 | 0.67 |
| CCCN(C)C(=O)[C@@H]1CC(=O)N(C)[C@@H](C2CC2)C(=O)N[C@@H]([C@@H](C)CC)C(=O)N(C)CC(=O)N(C)[C@H]2C/C=C\CCN(C2=O)[C@@H](Cc2ccc(C(F)(F)F)cc2)C(=O)N(C)CC(=O)N[C@@H](CCc2cc(F)c(C(F)(F)F)c(F)c2)C(=O)N2C[C@H](OCC)C[C@H]2C(=O)NC2(CCC2)C(=O)N(C)[C@@H](C2CCCC2)C(=O)N1C [PP1994] | A (a compound having 10 or more and less than 20 is denoted as A) | AA (a compound having 20 or more is denoted as AA) | 22.4 | 0.1 |
